{"source": "ChEMBL document CHEMBL1201862", "about": "“PubChem BioAssay data set” (2004)", "key": {"[1]": {"assay": "inhibition of ADAM10 peptide cleavage – biochemical, FRET peptide substrate, recombinant human ADAM10, selectivity assay for ADAM17 exosite inhibitor project, dose response (AID 743259)"}, "[2]": {"biological_target": "Disintegrin and metalloproteinase domain-containing protein 17 (Homo sapiens, UniProt P78536)", "sequence (P78536 whole entry, the tested form may be a part)": "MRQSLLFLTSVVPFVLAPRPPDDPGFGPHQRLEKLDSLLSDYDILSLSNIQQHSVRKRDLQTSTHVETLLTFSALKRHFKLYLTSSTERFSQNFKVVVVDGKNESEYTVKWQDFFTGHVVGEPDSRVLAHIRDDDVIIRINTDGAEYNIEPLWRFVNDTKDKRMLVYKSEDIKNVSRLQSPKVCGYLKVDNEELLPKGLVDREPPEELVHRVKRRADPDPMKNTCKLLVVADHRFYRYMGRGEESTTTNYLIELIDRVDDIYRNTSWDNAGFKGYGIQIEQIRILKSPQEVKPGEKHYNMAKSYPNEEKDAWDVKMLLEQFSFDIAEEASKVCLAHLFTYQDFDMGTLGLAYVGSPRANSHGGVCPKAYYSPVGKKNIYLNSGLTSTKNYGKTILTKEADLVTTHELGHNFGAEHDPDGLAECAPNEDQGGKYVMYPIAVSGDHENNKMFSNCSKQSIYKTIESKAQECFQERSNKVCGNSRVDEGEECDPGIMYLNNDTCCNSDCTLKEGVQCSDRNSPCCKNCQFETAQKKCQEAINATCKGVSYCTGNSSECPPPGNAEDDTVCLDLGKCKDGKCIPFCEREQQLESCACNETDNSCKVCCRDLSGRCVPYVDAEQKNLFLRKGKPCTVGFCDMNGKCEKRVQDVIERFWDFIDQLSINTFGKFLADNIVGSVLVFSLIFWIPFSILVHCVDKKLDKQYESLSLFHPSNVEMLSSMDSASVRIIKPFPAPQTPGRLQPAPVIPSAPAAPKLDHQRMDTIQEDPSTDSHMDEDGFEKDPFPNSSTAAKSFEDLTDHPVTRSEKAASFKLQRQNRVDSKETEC", "assay": "exosite inhibitors of ADAM17, dose response, biochemical (AID 743260)"}, "[3]": {"assay": "viability loss in MITF-independent A375 cells – cell-based, CellTiter-Glo luminescence, dry powder, set 2, counter-screen for MITF inhibitor project, dose response (AID 624489);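 also: actives are compounds lowering A375 viability meaning general cytotoxicity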", "format": "functional", "conditions": "A-375"}, "[4]": {"assay": "cytotoxicity in MITF-independent A375 cells – cell-based, CellTiter-Glo luminescence, dry powder, set 4, counter-screen for MITF inhibitor project, dose response (AID 624364);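 also: A375 melanoma cells are MITF independent so this is a counter screen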", "format": "functional", "conditions": "A-375"}, "[5]": {"biological_target": "Paired box protein Pax-8 (Homo sapiens, UniProt Q06710)", "sequence (Q06710 whole entry)": "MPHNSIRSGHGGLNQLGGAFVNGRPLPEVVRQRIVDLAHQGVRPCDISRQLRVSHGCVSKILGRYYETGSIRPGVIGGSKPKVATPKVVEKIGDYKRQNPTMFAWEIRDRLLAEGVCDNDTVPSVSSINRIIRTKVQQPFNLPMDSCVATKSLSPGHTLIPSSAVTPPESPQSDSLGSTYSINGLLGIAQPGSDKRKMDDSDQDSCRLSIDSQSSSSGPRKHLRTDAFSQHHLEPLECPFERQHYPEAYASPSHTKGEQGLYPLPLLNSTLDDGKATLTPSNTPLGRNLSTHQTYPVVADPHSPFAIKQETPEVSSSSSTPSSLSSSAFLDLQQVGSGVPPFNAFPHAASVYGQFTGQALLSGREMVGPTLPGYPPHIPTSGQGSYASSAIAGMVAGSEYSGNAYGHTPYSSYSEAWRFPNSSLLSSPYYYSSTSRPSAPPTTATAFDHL", "assay": "PAX8 transcriptional activity inhibition in RMG-I – RMG-I cells, luciferase, cherry-pick, dose response (AID 687027);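 also: luciferase reporter driven by Pax8 target thyroperoxidase promoter measured by SteadyGlo luminescence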", "format": "functional, cell-based"}, "[6]": {"assay": "IGROV1 cell killing – plate reader, dry powder samples, PAX8 inhibitor project, dose response (AID 743043)", "format": "functional, cell-based", "conditions": "IGROV-1"}, "[7]": {"assay": "COV362 cell viability loss – plate reader, dry powder, SA12, cytotoxicity control for PAX8 inhibitor project, dose response (AID 743144)", "format": "functional, cell-based"}, "[8]": {"biological_target": "Heat shock protein HSP 90-alpha (Homo sapiens, UniProt P07900)", "format": "functional, organism-based"}, "[9]": {"tested_on": "HEK293", "assay": "EBV LMP1 TES2 canonical NF-kB signalling blockers – cell-based, HEK293, luciferase, cherry-pick, dose response (AID 588343)", "format": "functional", "conditions": "Homo sapiens"}, "[10]": {"assay": "reduction of Shn3 3'UTR-driven luciferase in osteoblasts – cell-based, Clone20 osteoblasts, firefly luciferase, cherry-picked, dose response (AID 624132)", "format": "functional"}, "[11]": {"assay": "toxicity toward immortalized ovarian surface epithelium – cell-based, plate reader, dry powder samples, cytotoxicity control for PAX8 inhibitor project, dose response (AID 743045)", "format": "functional"}, "[12]": {"assay": "A2780 cell killing – plate reader, dry powder samples, cytotoxicity control, dose response (AID 743046)", "format": "functional, cell-based"}, "[13]": {"assay": "non-specific 3'UTR reporter inhibition in Clone20-Shn3RL – cell-based, Renilla luciferase, cherry-picked, counter-screen for Shn3 inhibitor project, dose response (AID 624133)", "format": "functional"}, "[14]": {"assay": "OVCAR-3 cell viability loss – plate reader, dry powder samples, PAX8 inhibitor project, dose response (AID 743044)", "format": "functional, cell-based"}, "[15]": {"assay": "inhibitors acting on PAX2 in cells – cell-based, plate reader, dry powder samples, selectivity assay for PAX8 inhibitor project, dose response (AID 743048);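 also: HEK293 cells carrying a WT1 promoter luciferase reporter driven by expressed Pax2; potency is for inhibition of Pax2 driven reporter signal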", "format": "functional"}, "[16]": {"assay": "PAX5 cellular inhibition readout – cell-based, plate reader, dry powder samples, selectivity assay for PAX8 inhibitor project, dose response (AID 743047);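 also: HEK293 cells carrying a Pax5 driven CD19 promoter luciferase reporter; potency of inhibitors that lower reporter luminescence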", "format": "functional"}, "[17]": {"assay": "loss of viability in HepG2 cells – cell-based, CellTiter-Glo, cherry-picked, cytotoxicity control for Shn3 inhibitor project, dose response (AID 624134)", "format": "functional"}, "[18]": {"assay": "COV434 cell viability loss – plate reader, dry powder, SA7, cytotoxicity control for PAX8 inhibitor project, dose response (AID 743145)", "format": "functional, cell-based"}, "[19]": {"assay": "OV-90 cell viability loss – plate reader, dry powder, SA8, PAX8 inhibitor project, dose response (AID 743149)", "format": "functional, cell-based"}, "[20]": {"assay": "OVCAR4 cell viability loss – plate reader, dry powder, SA11, cytotoxicity control for PAX8 inhibitor project, dose response (AID 743150)", "format": "functional, cell-based", "conditions": "OVCAR-4"}, "[21]": {"assay": "PAX8-dependent cell viability loss – plate reader, dry powder, dose response (AID 743049)", "format": "functional, cell-based"}, "[22]": {"biological_target": "T1, Methionyl-tRNA synthetase, putative (Trypanosoma brucei brucei, UniProt Q38C91)", "T1 sequence (Q38C91 whole entry)": "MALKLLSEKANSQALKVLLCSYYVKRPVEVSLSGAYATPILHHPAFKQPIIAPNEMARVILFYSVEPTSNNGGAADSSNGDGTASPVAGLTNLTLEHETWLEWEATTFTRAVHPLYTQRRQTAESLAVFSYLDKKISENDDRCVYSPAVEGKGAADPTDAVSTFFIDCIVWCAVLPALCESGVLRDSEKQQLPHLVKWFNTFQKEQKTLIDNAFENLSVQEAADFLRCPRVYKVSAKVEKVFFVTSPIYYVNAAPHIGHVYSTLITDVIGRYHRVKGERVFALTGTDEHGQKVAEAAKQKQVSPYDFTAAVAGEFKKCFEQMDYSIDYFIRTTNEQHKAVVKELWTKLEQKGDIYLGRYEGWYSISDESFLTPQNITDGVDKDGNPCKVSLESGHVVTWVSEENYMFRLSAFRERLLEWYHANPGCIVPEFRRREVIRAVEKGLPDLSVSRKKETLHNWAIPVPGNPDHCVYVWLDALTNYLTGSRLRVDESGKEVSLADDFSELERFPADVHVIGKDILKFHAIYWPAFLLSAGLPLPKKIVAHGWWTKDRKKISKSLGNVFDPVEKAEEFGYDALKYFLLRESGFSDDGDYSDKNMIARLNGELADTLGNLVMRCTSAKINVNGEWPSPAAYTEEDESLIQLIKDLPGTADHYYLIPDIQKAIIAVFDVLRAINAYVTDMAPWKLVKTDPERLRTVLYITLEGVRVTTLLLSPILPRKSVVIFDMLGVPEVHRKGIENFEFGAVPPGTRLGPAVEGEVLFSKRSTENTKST", "format": "functional, Trypanosoma brucei brucei strain 927/4 GUTat10.1"}, "[23]": {"assay": "Counterscreen for inhibitors of Trypanosoma brucei methionyl tRNA synthetase (MetRS): Luminescence-based cell-based high throughput dose response assay to identify compounds that are cytotoxic to Jurkat human T lymphocyte cells.", "format": "functional"}, "[24]": {"assay": "Late stage counterscreen for inhibitors of Trypanosoma brucei methionyl tRNA synthetase (MetRS): Luminescence-based cell-based high throughput dose response assay to identify compounds that are cytotoxic to Jurkat human T lymphocyte cells.", "format": "functional"}, "[25]": {"biological_target": "T1, Methionyl-tRNA synthetase, putative", "format": "functional, Trypanosoma brucei brucei strain 927/4 GUTat10.1", "remark": "listed apart in the source"}, "[26]": {"assay": "A Cell-Based Confirmatory Screen for Compounds that Inhibit VEEV, TC-83 (8).", "format": "functional"}, "[27]": {"biological_target": "Fatty acid synthase (Homo sapiens, UniProt P49327)", "sequence (P49327 whole entry)": "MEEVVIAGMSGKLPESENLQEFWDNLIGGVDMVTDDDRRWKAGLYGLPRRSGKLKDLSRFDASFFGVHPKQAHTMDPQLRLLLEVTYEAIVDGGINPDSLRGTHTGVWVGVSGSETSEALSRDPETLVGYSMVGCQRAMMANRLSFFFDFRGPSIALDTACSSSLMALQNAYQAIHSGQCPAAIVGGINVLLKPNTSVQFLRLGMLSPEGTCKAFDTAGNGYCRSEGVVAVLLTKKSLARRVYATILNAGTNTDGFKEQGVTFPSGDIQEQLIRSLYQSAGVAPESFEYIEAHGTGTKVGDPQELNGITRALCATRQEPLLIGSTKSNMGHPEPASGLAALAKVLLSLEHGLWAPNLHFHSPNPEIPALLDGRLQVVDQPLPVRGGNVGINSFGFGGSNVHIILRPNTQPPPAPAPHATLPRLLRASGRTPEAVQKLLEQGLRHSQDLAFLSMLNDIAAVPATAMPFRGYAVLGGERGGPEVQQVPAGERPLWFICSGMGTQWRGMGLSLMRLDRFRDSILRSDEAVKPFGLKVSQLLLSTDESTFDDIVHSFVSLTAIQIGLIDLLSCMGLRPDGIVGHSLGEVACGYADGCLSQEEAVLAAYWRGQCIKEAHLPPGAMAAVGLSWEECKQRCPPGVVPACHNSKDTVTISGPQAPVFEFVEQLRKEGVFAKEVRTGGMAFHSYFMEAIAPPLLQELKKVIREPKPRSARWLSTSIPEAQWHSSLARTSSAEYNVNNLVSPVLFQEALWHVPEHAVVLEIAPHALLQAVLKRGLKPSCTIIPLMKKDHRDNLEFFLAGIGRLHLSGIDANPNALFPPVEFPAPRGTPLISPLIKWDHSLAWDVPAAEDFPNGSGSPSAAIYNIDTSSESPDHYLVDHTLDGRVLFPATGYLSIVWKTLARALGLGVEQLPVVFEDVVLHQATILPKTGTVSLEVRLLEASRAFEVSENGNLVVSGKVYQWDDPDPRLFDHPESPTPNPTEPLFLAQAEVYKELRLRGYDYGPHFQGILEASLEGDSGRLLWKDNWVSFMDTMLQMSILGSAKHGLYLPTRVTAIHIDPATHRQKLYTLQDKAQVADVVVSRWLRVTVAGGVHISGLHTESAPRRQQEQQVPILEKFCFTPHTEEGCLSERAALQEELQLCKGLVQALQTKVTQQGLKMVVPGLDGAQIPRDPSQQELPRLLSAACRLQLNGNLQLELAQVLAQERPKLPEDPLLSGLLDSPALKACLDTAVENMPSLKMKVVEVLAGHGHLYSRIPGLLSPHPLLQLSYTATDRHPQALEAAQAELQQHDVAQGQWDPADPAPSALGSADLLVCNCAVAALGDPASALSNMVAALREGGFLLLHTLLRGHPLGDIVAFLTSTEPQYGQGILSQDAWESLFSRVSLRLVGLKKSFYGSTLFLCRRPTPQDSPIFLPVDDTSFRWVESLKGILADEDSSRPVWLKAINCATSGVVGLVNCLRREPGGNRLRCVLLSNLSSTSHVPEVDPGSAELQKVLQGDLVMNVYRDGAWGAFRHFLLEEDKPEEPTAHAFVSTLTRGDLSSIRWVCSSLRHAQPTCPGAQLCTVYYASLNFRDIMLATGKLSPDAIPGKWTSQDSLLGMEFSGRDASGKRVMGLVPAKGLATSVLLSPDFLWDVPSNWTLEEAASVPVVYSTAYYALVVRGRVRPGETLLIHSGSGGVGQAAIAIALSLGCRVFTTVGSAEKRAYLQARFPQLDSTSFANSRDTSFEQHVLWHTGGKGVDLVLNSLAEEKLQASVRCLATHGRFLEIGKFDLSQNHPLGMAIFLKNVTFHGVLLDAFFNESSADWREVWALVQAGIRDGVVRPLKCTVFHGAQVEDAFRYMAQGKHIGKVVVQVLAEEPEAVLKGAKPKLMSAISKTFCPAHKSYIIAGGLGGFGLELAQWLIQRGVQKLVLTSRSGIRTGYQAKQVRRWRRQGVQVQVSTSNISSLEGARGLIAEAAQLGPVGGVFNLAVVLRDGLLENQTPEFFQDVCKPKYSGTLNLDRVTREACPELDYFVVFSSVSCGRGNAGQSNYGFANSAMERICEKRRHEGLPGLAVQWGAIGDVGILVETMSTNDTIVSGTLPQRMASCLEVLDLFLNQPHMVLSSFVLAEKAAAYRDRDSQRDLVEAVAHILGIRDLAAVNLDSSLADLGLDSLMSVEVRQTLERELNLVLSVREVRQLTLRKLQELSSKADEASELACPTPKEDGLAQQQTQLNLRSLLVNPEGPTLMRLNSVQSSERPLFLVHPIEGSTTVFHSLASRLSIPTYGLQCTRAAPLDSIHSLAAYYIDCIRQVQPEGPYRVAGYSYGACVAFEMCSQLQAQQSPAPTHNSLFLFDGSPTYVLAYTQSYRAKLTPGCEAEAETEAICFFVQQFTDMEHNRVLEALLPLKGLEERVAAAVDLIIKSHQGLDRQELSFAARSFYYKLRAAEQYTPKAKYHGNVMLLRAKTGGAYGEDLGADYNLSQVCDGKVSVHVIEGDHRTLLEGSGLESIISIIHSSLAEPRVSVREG", "assay": "inhibition of human FAS-TE enzyme activity – biochemical, endpoint fluorescence intensity, powder samples, SAR follow-up (AID 652164)", "format": "functional"}, "[28]": {"biological_target": "T2, Caspase-6 (Homo sapiens, UniProt P55212)", "T2 sequence (P55212 whole entry)": "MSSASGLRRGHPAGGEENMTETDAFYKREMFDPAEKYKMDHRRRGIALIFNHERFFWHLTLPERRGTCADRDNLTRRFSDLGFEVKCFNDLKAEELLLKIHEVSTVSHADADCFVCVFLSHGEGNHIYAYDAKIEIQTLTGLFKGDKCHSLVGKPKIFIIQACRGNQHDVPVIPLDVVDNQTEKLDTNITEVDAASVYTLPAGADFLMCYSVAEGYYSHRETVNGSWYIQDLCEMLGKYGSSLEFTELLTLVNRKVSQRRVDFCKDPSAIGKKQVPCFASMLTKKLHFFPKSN", "assay": "inhibition of CASP6 peptide cleavage – biochemical, VEID-R110 fluorescence, cherry-pick, dose response (AID 720632)"}, "[29]": {"biological_target": "Bcl-2-like protein 1 (Homo sapiens, UniProt Q07817)", "sequence (Q07817 whole entry)": "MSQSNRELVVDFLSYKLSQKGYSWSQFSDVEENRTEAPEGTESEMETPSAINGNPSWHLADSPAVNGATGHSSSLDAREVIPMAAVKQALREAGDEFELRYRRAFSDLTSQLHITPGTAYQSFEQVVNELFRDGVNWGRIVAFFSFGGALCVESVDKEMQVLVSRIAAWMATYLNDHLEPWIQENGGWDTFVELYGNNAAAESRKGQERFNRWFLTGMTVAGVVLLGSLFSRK", "assay": "blockers of BCLXL peptide binding – biochemical, fluorescence polarization, 1536-well, selectivity assay for MCL1 inhibitor project, dose response (AID 2218)"}, "[30]": {"biological_target": "Caspase-8 (Homo sapiens, UniProt Q14790)", "sequence (Q14790 217-374 limits assumed)": "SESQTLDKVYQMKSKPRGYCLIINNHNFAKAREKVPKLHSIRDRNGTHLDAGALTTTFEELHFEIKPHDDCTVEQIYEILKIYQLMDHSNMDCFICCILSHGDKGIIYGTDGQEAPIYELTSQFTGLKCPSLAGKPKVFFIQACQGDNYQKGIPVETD", "sequence (Q14790 385-479 limits assumed)": "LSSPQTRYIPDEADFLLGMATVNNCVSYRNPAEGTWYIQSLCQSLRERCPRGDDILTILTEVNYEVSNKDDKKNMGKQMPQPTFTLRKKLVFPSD", "assay": "inhibitors of purified CASP8 protease – biochemical, Z-IETD-R110 fluorescence, cherry-picked samples, selectivity assay for caspase-6 inhibitor project, dose response (AID 743294)"}, "[31]": {"biological_target": "Caspase-7 (Homo sapiens, UniProt P55210)", "sequence (P55210 24-198 limits assumed)": "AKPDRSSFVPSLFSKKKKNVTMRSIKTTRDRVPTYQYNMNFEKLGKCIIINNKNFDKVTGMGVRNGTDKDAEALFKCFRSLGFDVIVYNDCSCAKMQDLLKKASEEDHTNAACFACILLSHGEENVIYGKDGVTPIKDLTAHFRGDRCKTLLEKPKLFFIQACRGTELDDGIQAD", "sequence (P55210 207-303 limits assumed)": "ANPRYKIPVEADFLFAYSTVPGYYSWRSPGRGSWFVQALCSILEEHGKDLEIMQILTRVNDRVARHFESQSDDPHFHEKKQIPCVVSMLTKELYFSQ", "assay": "caspase-7 enzyme inhibition, selectivity check – biochemical, DEVD-R110 fluorescence, cherry-pick, selectivity assay for caspase-6 inhibitor project, dose response (AID 743295)", "format": "functional"}, "[32]": {"biological_target": "Induced myeloid leukemia cell differentiation protein Mcl-1 (Homo sapiens, UniProt Q07820)", "sequence (Q07820 whole entry)": "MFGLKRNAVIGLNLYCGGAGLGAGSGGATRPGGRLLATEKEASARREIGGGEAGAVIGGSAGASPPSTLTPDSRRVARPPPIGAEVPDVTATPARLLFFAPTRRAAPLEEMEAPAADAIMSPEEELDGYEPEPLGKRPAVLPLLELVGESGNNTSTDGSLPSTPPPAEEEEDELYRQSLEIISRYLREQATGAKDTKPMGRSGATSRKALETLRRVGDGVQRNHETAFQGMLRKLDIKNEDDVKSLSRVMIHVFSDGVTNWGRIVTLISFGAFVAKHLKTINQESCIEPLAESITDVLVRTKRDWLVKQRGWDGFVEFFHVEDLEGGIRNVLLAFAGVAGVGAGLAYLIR", "assay": "blockers of MCL1 binding to BIM peptide – biochemical, fluorescence polarization, BIM-BH3 peptide, 1536-well, dose response (AID 2217)"}, "[33]": {"assay": "suppression of HIF-dependent reporter luminescence – cell-based, dry powder samples, 2158-07, ARNT-TACC3 inhibitor project, dose response (AID 720561)", "format": "functional"}}, "note": "The source made the active and inactive calls."}
{"smiles": "COc1ccc(CNC(=O)CN(Cc2ccc(Cl)cc2)S(=O)(=O)c2ccccc2)cc1", "values": [{"measurement": "IC50", "setting": "[1]", "value": "> 69.5 µM (inactive)"}, {"measurement": "IC50", "setting": "[2]", "value": "> 69.5 µM (inactive)"}]}
{"smiles": "O=C1C(Nc2ccccc2)=C(N2CCN(c3ccccc3)CC2)C(=O)c2ccccc21", "values": [{"measurement": "AC50", "setting": "[3]", "value": "> 70 µM (inactive)"}, {"measurement": "AC50", "setting": "[4]", "value": "> 70 µM (inactive)"}]}
{"smiles": "CC(=O)NC(c1ccc(Cl)cc1)c1ccc2cccnc2c1O", "note": "(stereo not drawn)", "values": [{"measurement": "AC50", "setting": "[5]", "value": "2.09 µM (active)"}, {"measurement": "AC50", "setting": "[6]", "value": "7.12 µM (active)"}, {"measurement": "AC50", "setting": "[7]", "value": "7.17 µM (active)"}, {"measurement": "AC50", "setting": "[8]", "value": "2.68 µM (active)"}, {"measurement": "AC50", "setting": "[9]", "value": "4.08 µM (active)"}, {"measurement": "AC50", "setting": "[10]", "value": "0.299 µM (active)"}, {"measurement": "AC50", "setting": "[11]", "value": "4.43 µM (active)"}, {"measurement": "AC50", "setting": "[12]", "value": "20.8 µM (active)"}, {"measurement": "AC50", "setting": "[13]", "value": "0.977 µM (active)"}, {"measurement": "AC50", "setting": "[14]", "value": "4.57 µM (active)"}, {"measurement": "AC50", "setting": "[15]", "value": "1.57 µM (active)"}, {"measurement": "AC50", "setting": "[16]", "value": "2.31 µM (active)"}, {"measurement": "AC50", "setting": "[17]", "value": "1.47 µM (active)"}, {"measurement": "AC50", "setting": "[18]", "value": "5.09 µM (active)"}, {"measurement": "AC50", "setting": "[19]", "value": "5.27 µM (active)"}, {"measurement": "AC50", "setting": "[20]", "value": "18.1 µM (active)"}, {"measurement": "AC50", "setting": "[21]", "value": "8.52 µM (active)"}]}
{"smiles": "CN(Cc1cc(Cl)cc(Cl)c1)[C@H]1C[C@H]2c3[nH]c4ccccc4c3CCN2C(=O)[C@H]1CO", "values": [{"measurement": "IC50", "setting": "[22]", "value": "1.64 µM (active)"}, {"measurement": "IC50", "setting": "[23]", "value": "80.2 µM (inactive)"}, {"measurement": "IC50", "setting": "[24]", "value": "31.7 µM (inactive)"}, {"measurement": "IC50", "setting": "[25]", "value": "1.33 µM (active)"}]}
{"smiles": "O=c1c2cc([N+](=O)[O-])ccc2nc(C2CCNCC2)n1-c1ccccc1", "values": [{"measurement": "IC50", "setting": "[26]", "value": "3.88 µM (active)"}]}
{"smiles": "CN(C)S(=O)(=O)c1ccc(-c2csc(NC(=O)C3CCC3)n2)cc1", "values": [{"measurement": "IC50", "setting": "[27]", "value": "1.36 µM (active)"}]}
{"smiles": "CCCCN(C(=O)c1cccc(-n2cccc2)c1)c1c(N)n(CCC)c(=O)[nH]c1=O", "values": [{"measurement": "AC50", "setting": "[28]", "value": "1.93 µM (active)"}, {"measurement": "IC50", "setting": "[29]", "value": "> 109 µM (not active)"}, {"measurement": "AC50", "setting": "[30]", "value": "> 70 µM (inactive)"}, {"measurement": "AC50", "setting": "[31]", "value": "51.2 µM (active)"}, {"measurement": "IC50", "setting": "[32]", "value": "> 12.1 µM (not active)"}]}
{"smiles": "Cc1nnc(NC(=O)c2ccc(S(=O)(=O)N3CCCCC3)cc2)o1", "values": [{"measurement": "AC50", "setting": "[33]", "value": "> 100 µM (inactive)"}]}
